Reference: US11584727B2, “2-thioxothiazolidin-4-one derivatives active as transthyretin ligands and uses thereof” (BSIM Therapeutics, S.A., priority 2014, dated 2023)

Experiments:
[1] = molecular target: Val122Ile transthyretin (V122I-TTR) (Homo sapiens, UniProt P02766, V142I); test: V122I-TTR amyloid fibril formation assay (turbidimetry, acid-induced); format: biochemical; settings: pH 4.4, 72 hours; for Fibril Formation (%): V122I-TTR 3.6 μM, 37° C.
[2] = test system: FAP patients; settings: 18-month phase-III clinical trial; cited from earlier work
[3] = molecular target: T1, wild type transthyretin (WT-TTR) (Homo sapiens, UniProt P02766); test: WT-TTR amyloid fibril formation assay (turbidimetry, acid-induced); format: biochemical; settings: for Fibril Formation (%): WT-TTR 3.6 μM, 1:1 TTR-compound stoichiometry, 37° C., normalized to no-compound control (100%)
T1 construct: made in house; host or cells: E. coli BL21 (DE3), pET23a plasmid

[4] = molecular target: T2, human plasma TTR (Homo sapiens, UniProt P02766); test: Tetrameric TTR stability by isoelectric focusing (IEF) of plasma TTR, ex vivo; format: biochemical; settings: human plasma incubated with compound; control (vehicle) 0.717
T2 construct: from tissue; host or cells: human plasma
Experimental: To perform the assay, 30 μL of human plasma are incubated with 5 μL of a 10 mM solution of test compounds and control compounds overnight at 4° C. followed by a 1 hour incubation at room temperature. The preparations are subjected to native PAGE. The gel band containing TTR is then excised and applied to an IEF gel and IEF is carried out in semi-denaturing conditions. Proteins are stained with Coomassie Blue, the gels are scanned and subjected to densitometry. The results are expressed as the ratio of TTR tetramer over the total TTR species present, reflecting TTR stability.
After treatment with the test compounds, TTR was separated by PAGE and the isolated protein was analyzed by IEF.
To perform the assay, 30 μL of human plasma are incubated with 5 μL of a 10 mM solution of test compounds and control compounds overnight at 4° C. followed by a 1 hour incubation at RT. The preparations are subjected to native PAGE and the gel band containing TTR is excised and applied to an IEF gel. IEF is carried out in semi-denaturing conditions (4 M urea), containing 5% (v/v) ampholytes pH 4-6.5 (GE Healthcare), at 1200 V for 6 hours. Proteins are stained with Coomassie Blue, the gels are scanned and subjected to densitometry using the ImageQuant program. The results are expressed as the ratio of TTR tetramer over total TTR.

O=C(O)c1ccc2nc(-c3cc(Cl)cc(Cl)c3)oc2c1 [Tafamidis, reference compound]
Fibril Formation (%) [1]: 49% | FAP patients with improvement of symptoms [2]: approximately 60% | Fibril Formation (%) ([3]; pH 4.4, 72 hours): 43%

COc1cc(/C=C2\SC(=S)N(CC(=O)O)C2=O)cc(Cl)c1O [AT50-A00 (Z), (Z)-3-hydroxycarbonylmethyl-5-(3′-chloro-4′-hydroxy-5′-methoxyphenylmethylidene)-2-thioxothiazolidin-4-one]
Fibril Formation (%) [1]: 52% | IC50 ([1]; V122I-TTR fixed at 3.6 μM, ten compound concentrations): 3730 nM | tetramer/monomer ratio (IEF densitometry) [4]: 0.838 | inhibition of fibril formation ([3]; 1:2 compound-protein stoichiometry (0.5×), TTR 3.6 μM): above 70% | inhibitory activity against TTR amyloid fibril formation compared with reference compounds (in words) ([3]; TTR 3.6 μM, pH 4.4, 72 hours): superior to that of reference compounds Tafamidis | Fibril Formation (%) ([3]; pH 4.4, 72 hours): 28% | IC50 ([3]; WT-TTR fixed at 3.6 μM, ten compound concentrations, pH 4.4, 72 hours): 1770 ± 240 nM
